One data set has as its target T1, PXR(S208W/S247W/C284W) (Homo sapiens, UniProt O75469, C284W/S208W/S247W).
T1 construct: expressed in transfected cells; host or cells: HepG2
As to the kind of experiment: LBP-filled PXR mutant CYP3A4 reporter assay. In kind it is cell-based. To be noted: HepG2, 10 µM, 24 h. The protocol:
(§1) For testing nuclear receptor selectivity and LBP-filled PXR mutant activation, transient batch transfection was conducted as above, but with HepG2 cells and the following plasmids, with amounts per well of 0.23–0.27 µg pGL4-CYP3A4(-7830Δ7208-364) or pGL3(DR3)3Tk (as reporter for VDR), 0.01 µg pMetLuc2control, and 0.03 µg either CAR1, CAR3, VDR, or PXR(S208W/S247W/C284W) expression plasmids. In addition, 0.03 µg RXRα expression plasmid was added to CAR3 transfections. Metridia luciferase activity was measured from 10 µL of medium supernatant after adding 100 µL Renilla luciferase assay solution.
Figure 5 PXR binding of phenylaminobenzosuberones is indicated by cellular PXR LBD assembly assay and inhibition of LBP-filled PXR mutant (A) Novel compounds induce PXR LBD assembly. […] (B) Effects of novel compounds on LBP-filled PXR mutant. HepG2 cells were transiently transfected with CYP3A4 reporter and expression plasmid encoding PXR(S208W/S247W/C284W) and treated as described above. […] Statistically significant differences are illustrated with asterisks. ** p ˂ 0.01, compared to respective treatments with DMSO analyzed by repeated measures one-way ANOVA with Dunnett’s multiple comparisons test.

In the next data set the target is T2, CAR1 (Homo sapiens, UniProt Q14994).
T2 construct: expressed in transfected cells; host or cells: HepG2
T2 sequence (Q14994 1-348 isoform Q14994-2): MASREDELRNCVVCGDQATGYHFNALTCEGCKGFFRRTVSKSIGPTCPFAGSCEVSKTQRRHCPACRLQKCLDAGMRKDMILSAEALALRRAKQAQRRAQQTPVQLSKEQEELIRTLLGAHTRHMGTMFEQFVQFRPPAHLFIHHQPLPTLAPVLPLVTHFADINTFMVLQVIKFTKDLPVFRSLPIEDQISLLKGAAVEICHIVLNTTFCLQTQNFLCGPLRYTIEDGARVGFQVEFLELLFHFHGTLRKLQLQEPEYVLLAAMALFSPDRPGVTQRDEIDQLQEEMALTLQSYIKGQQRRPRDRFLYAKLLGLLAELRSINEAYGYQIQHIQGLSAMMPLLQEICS
As to the kind of experiment: Nuclear receptor selectivity reporter assay, CAR1. The format is cell-based. Particulars: HepG2, 10 µM. The protocol: as §1
Figure 6 Selectivity of novel PXR ligands within the NR1I group of nuclear receptors. HepG2 cells were transiently transfected with CYP3A4 reporter and expression plasmids encoding (A) CAR1 or (B) CAR3, or (C) direct repeat (DR3)3 reporter and expression plasmid encoding VDR. Cells were treated with 0.2% DMSO or 10 µM chemicals as indicated. 1α,25(OH)2D3 was used at 1 µM.
In general terms: A reporter such as luciferase makes a cellular process visible.

For data set [1], the target named is T3, PXR (Homo sapiens, UniProt O75469).
T3 sequence (O75469 1-434): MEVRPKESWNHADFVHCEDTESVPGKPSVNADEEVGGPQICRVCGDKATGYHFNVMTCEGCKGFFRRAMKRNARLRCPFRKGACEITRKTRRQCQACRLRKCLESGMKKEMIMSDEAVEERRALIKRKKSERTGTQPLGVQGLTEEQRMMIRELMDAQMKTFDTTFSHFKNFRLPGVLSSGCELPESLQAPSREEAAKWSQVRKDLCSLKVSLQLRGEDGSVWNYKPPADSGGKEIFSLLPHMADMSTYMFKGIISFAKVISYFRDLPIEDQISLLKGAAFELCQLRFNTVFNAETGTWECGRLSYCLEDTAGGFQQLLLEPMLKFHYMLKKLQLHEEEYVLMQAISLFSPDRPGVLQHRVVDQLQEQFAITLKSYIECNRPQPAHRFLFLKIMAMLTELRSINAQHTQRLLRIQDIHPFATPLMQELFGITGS
As to the kind of experiment: PXR-dependent CYP3A4 reporter gene assay, agonist mode. In kind it is cell-based. Further details: expressed in transfected cells; host or cells: H-P cells (HepG2 stably transfected with PXR). Particulars: H-P cells; for activation of CYP3A4 reporter on their own, % of rifampicin activity: 10 µM compound alone, 10 µM rifampicin = 100%; for activation of CYP3A4 reporter on their own, % of rifampicin activity / EC50: 24 h; for EC50 / fold induction at 24 h: compound alone; for EC50: read-out: EC50, PXR activation; for fold induction at 24 h: human, vs DMSO, read-out: maximal effect (Emax), fold induction. From the text:
Figure 1 Identification of novel putative PXR ligands from the TüKIC library. (A) Workflow of the in silico screening and structures of the identified candidate ligands. (B) Concentration–response curves of the novel inhibitors for antagonism of PXR activity. (C) Concentration–response curves of the same compounds and 109 for PXR activation. […] Data are expressed as mean ± SD fold induction with respect to the DMSO-treated cells from three independent experiments. IC50 and EC50 values calculated with nonlinear regression using formula with 3 parameters (constraint bottom =1) using GraphPadPrism.
Supplementary Figure S1. Effects of 56 in silico screened TüKIC compounds (A) alone or (B) in combination […]
H-P cells were transiently
Luciferase activities were measured after 24 h treatment. Data is expressed as mean ± SD %. Activation was calculated according to Zhu et al. from three independent experiments with technical triplicates. Fold induction achieved by 10 μM […]
Green and red dashed lines represent the 100% and 50% activation, respectively.
(1 picture or pasted object on this page, not shown here)

For another data set, the system named is CYP3A4. As to the kind of experiment: PXR target gene mRNA expression in LS174T cells (RT-qPCR). Particulars: 10 µM single treatment, 48 h (109) or 72 h (73, 100). A general note: Real-time PCR tracks product formation cycle by cycle.
The next data set has as its target T4, SRPK1 (Homo sapiens, UniProt Q96SB4).
T4 construct: purchased ProQinase (Freiburg, Germany)
As to the kind of experiment: Kinase profiling. In kind it is biochemical. The method, then: The analysis was performed by ProQinase (Freiburg, Germany).

For data set [2], the target named is T3, PXR. As to the kind of experiment: Competitive radioligand binding assay ([3H]SR12813). Further details: purchased Eurofins Cerep (contract assay service). To be noted: 7 concentrations 0.01-10 µM, duplicate; read-out: IC50, inhibition of binding of 3H-labeled SR12813 to PXR. The protocol: The assay was performed by Eurofins Cerep (Celle-Lévescault, France). […] Compound binding was calculated as % inhibition of the binding of the radioactively labeled PXR ligand [3H]SR12813 to recombinant human PXR, as described previously.

Where “and” joins values, the source holds several entries; their conditions need not be identical. Equal entries are not always repeated.

T4 sequence (Q96SB4 whole entry): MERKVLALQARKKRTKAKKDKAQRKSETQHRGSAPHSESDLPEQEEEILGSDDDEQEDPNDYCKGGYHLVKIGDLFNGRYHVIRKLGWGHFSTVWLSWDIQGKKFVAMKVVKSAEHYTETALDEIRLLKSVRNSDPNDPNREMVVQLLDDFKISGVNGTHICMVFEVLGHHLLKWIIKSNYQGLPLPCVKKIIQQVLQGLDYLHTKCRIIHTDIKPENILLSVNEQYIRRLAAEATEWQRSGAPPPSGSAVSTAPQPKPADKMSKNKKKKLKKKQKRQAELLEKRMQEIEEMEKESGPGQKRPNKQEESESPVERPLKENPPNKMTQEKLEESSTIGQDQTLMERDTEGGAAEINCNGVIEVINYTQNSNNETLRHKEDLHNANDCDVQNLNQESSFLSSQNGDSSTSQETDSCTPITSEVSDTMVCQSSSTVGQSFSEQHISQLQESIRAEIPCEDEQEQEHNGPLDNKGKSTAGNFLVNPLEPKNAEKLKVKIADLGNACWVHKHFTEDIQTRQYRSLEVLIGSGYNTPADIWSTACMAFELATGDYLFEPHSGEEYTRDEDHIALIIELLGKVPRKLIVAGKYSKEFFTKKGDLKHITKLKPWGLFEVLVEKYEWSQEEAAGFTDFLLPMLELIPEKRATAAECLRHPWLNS
T1 sequence (O75469 whole entry S208W/S247W/C284W): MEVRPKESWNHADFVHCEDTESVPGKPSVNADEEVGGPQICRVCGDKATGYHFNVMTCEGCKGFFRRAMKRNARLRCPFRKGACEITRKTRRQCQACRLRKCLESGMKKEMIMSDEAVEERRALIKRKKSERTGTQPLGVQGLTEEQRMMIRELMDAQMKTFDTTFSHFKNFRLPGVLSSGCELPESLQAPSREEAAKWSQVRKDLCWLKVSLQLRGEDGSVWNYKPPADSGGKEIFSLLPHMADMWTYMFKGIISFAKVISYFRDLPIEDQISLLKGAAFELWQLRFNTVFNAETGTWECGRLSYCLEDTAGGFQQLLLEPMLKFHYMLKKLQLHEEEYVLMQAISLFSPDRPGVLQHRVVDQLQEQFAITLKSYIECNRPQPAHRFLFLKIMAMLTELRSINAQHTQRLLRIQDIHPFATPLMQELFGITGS

On to `Cc1ccc(NC(=O)Cc2ccccc2)cc1Nc1ccc2c(c1)CCCCC2=O` [Compound 73], for which the “suppression of constitutive activity of LBP-filled PXR mutant” value at PXR(S208W/S247W/C284W) is on record as 40%. Further, the “suppression of constitutive activity of CAR1” value at CAR1 came to 30%. Also, at PXR [1], the “activation of CYP3A4 reporter on their own, % of rifampicin activity” value is on record as “about 10%”; the EC50 (usually the concentration giving half of the maximal effect) was determined as 0.41 µM; the fold induction at 24 h was approximately 2. Also, the “expression of CYP3A4 mRNA” value with CYP3A4 is given as “induced CYP3A4 expression, which was comparable to induction by rifampicin”.

As for `O=C(Nc1ccc(F)c(Nc2ccc3c(c2)CCCCC3=O)c1)c1cccc(F)c1` [Compound 109], the Residual activity at SRPK1 (1.0E-05 M) was 68 % of control. At SRPK1 (1.0E-06 M), the Residual activity is given as 96 % of control. Moreover, the “activation of CAR1” value on CAR1 is “did not reach statistical significance”. Also, on PXR [1], the EC50 was 44 µM and 29.2 µM; the fold induction at 24 h amounted to 27. For the same compound, in the data set with CYP3A4, the “expression of CYP3A4 mRNA” value is given as “induced both genes”. For the same compound, at PXR [2], the IC50 (in general, the point on the concentration scale where inhibition reaches its midpoint) stood at 2.9 µM.

Turning to `O=C(Cc1ccccc1)Nc1ccc(F)c(Nc2ccc3c(c2)CCCCC3=O)c1` [Compound 100], the Residual activity on SRPK1 (1.0E-05 M) is 71 % of control. The Residual activity at SRPK1 (1.0E-06 M) was 94 % of control. The “suppression of constitutive activity of LBP-filled PXR mutant” value at PXR(S208W/S247W/C284W) is “did not affect constitutive activity of the PXR mutant”. Also, the “suppression of constitutive activity of CAR1” value on CAR1 is on record as 30%. Moreover, on PXR [1], the “activation of CYP3A4 reporter on their own, % of rifampicin activity” value was “about 10%”; the EC50 stood at 0.15 µM; the fold induction at 24 h is approximately 2. Further, the “expression of CYP3A4 mRNA” value in the data set with CYP3A4 is given as “induced CYP3A4 expression, which was comparable to induction by rifampicin”. Also, the IC50 on PXR [2] amounted to 4.5 µM.

These data come from PMC9030254, “Target Hopping from Protein Kinases to PXR: Identification of Small-Molecule Protein Kinase Inhibitors as Selective Modulators of Pregnane X Receptor from TüKIC Library” (Cells, 2022).
